Reference: the NIST ThermoML archive (doi:10.1021/je060389r)

Tests used:
[1] = 298.15 K, 101 kPa, Liquid; for viscosity: Capillary tube (Ostwald / Ubbelohde) method; for speed of sound: Linear variable-path acoustic interferometer; for mass density: Pycnometric method
[2] = xn = mol fraction of the nth substance listed; conditions: 298.15 K, 101 kPa, Liquid; for viscosity: Capillary tube (Ostwald / Ubbelohde) method; for speed of sound: Linear variable-path acoustic interferometer; for mass density: Pycnometric method

CCCCCCCC [octane]
[1]
Conditions | mass density [kg/m3] | speed of sound [m/s] | viscosity [mPa·s]
– | 698.6 | 1170.9 | 0.518

CCCCCCCCCC [decane]
[1]
Conditions | mass density [kg/m3] | speed of sound [m/s] | viscosity [mPa·s]
– | 725.9 | 1235.4 | 0.845

CCCCCC [hexane]
[1]
Conditions | mass density [kg/m3] | speed of sound [m/s] | viscosity [mPa·s]
– | 654.9 | 1078.5 | 0.313

CCCCCCCCCC [decane] + CC(C)CO
[2], x2 = 0
Conditions | mass density [kg/m3] | speed of sound [m/s] | viscosity [mPa·s]
– | 725.9 | 1235.4 | 0.845

CC(C)CO [2-methyl-1-propanol] + CCCCCCCCCC
[2]
Conditions | mass density [kg/m3] | speed of sound [m/s] | viscosity [mPa·s]
x1 = 0.0728 | 728.1 | 1228.7 | 0.848
x1 = 0.1021 | 729 | 1226.6 | 0.859
x1 = 0.2032 | 732.6 | 1219.9 | 0.89
x1 = 0.2976 | 736.4 | 1215.2 | 0.934
x1 = 0.3547 | 739 | 1212.2 | 0.976
x1 = 0.4171 | 742.1 | 1209.4 | 1.023
x1 = 0.5016 | 747 | 1206.1 | 1.119
x1 = 0.6084 | 754.2 | 1201.8 | 1.297
x1 = 0.6575 | 758 | 1200.2 | 1.415
x1 = 0.7027 | 761.9 | 1198.4 | 1.543
x1 = 0.8004 | 771.6 | 1195.1 | 1.942
x1 = 0.8952 | 782.9 | 1192.9 | 2.503
x1 = 0.9497 | 790.5 | 1192 | 2.928
x1 = 0.9848 | 795.8 | 1191.8 | 3.249
x1 = 1 | 798.2 | 1191.3 | 3.404

CC(C)CO [2-methyl-1-propanol] + CCCCCCCC
[2]
Conditions | mass density [kg/m3] | speed of sound [m/s] | viscosity [mPa·s]
x1 = 0.0589 | 701.5 | 1168.3 | 0.527
x1 = 0.1165 | 704.5 | 1166.5 | 0.535
x1 = 0.205 | 709.8 | 1164.8 | 0.576
x1 = 0.2792 | 714.7 | 1164 | 0.617
x1 = 0.3371 | 718.9 | 1163.1 | 0.663
x1 = 0.4081 | 724.6 | 1162.7 | 0.719
x1 = 0.4662 | 729.6 | 1163.3 | 0.788
x1 = 0.5126 | 733.9 | 1163.7 | 0.85
x1 = 0.6126 | 744.1 | 1166.3 | 1.028
x1 = 0.6615 | 749.5 | 1168.4 | 1.154
x1 = 0.7069 | 754.9 | 1170 | 1.3
x1 = 0.7855 | 765 | 1173.5 | 1.634
x1 = 0.8615 | 775.8 | 1178.6 | 2.102
x1 = 0.9523 | 790.1 | 1187 | 2.875
x1 = 1 | 798.2 | 1191.3 | 3.404

CCCCCCCC [octane] + CC(C)CO
[2], x2 = 0
Conditions | mass density [kg/m3] | speed of sound [m/s] | viscosity [mPa·s]
– | 698.6 | 1170.9 | 0.518

CC(C)CO [2-methyl-1-propanol]
[1]
Conditions | mass density [kg/m3] | speed of sound [m/s] | viscosity [mPa·s]
– | 798.2 | 1191.3 | 3.404

CC(C)CO [2-methyl-1-propanol] + CCCCCC
[2]
Conditions | mass density [kg/m3] | speed of sound [m/s] | viscosity [mPa·s]
x1 = 0.0554 | 660.1 | 1077.5 | 0.323
x1 = 0.104 | 664.9 | 1077.5 | 0.337
x1 = 0.2 | 675.1 | 1080.1 | 0.373
x1 = 0.3274 | 690.1 | 1086.7 | 0.462
x1 = 0.4173 | 701.6 | 1094.1 | 0.547
x1 = 0.4666 | 708.3 | 1099.2 | 0.606
x1 = 0.5057 | 713.8 | 1103.5 | 0.659
x1 = 0.5589 | 721.5 | 1110 | 0.748
x1 = 0.609 | 729 | 1116.9 | 0.859
x1 = 0.7073 | 744.6 | 1132.5 | 1.162
x1 = 0.8051 | 761.2 | 1150 | 1.627
x1 = 0.861 | 771.2 | 1161.3 | 2.004
x1 = 0.9149 | 781.3 | 1172.5 | 2.454
x1 = 0.9376 | 785.7 | 1177.5 | 2.67
x1 = 1 | 798.2 | 1191.3 | 3.404

CCCCCC [hexane] + CC(C)CO
[2], x2 = 0
Conditions | mass density [kg/m3] | speed of sound [m/s] | viscosity [mPa·s]
– | 654.9 | 1078.5 | 0.313
